Legend:
CYP2B6 = molecular target: T1, CYP2B6 (Homo sapiens, UniProt P20813); test: Inhibition of CYP2B6 activity in human liver microsomes (direct and time-dependent); assay type: in vitro ADME
T1 construct: measuring the activity of CYP2B6 in human liver microsomes; from tissue; host or cells: human liver microsomes
T1 sequence (P20813 1-491): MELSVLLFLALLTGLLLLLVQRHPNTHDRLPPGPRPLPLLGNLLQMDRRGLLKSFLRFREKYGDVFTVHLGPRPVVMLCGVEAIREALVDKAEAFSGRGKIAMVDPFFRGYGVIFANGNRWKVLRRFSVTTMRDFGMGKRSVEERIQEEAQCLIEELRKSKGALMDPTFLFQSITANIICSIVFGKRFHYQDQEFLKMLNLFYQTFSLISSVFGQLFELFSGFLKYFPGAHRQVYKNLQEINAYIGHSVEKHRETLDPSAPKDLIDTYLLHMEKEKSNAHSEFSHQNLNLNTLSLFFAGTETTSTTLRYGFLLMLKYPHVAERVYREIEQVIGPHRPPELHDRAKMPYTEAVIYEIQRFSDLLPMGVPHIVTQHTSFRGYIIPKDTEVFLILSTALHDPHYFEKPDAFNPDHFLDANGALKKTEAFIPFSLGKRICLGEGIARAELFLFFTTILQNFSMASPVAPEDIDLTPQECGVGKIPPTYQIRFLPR
Method: The inhibitory potency of dasotraline was determined in vitro by measuring the activity of CYP2B6 in human liver microsomes in the presence and absence of dasotraline. […] Furthermore, dasotraline was determined to be a time-dependent inhibitor of CYP2B6 with an apparent inactivation constant of 0.12 μM and a maximal inactivation rate constant of 0.15 min-1. Based on the Food and Drug Administration Draft Guidance: Drug Interaction Studies (February 2012) and the prediction using physiologically-based PK modeling and simulation there is a potential for dasotraline to inhibit the metabolism pathway of CYP2B6 substrates through time-dependent inhibition. Therefore, the effect of dasotraline on the PK of a CYP2B6 substrate (ie, efavirenz) was studied clinically.

clinical [1] = details: human, in vivo
Method: Eight clinical studies—including single dose pharmacokinetic (PK), multiple dose PK, efficacy, safety, and tolerability, human abuse liability, absorption, metabolism, and excretion, and safety, efficacy, and tolerability in adults with attention-deficit hyperactivity disorder—were completed with dasotraline. In those studies, single doses ranging from 0.2 mg to 36 mg and multiple doses from 0.5 mg/day to 8 mg/day for 21 to 56 days were evaluated. Dasotraline was slowly absorbed into the systemic circulation, reaching time of maximum observed plasma concentration (tmax) approximately 10 to 12 hours after single administration of doses ranging from 0.2 to 36 mg. The change in maximum observed plasma concentration (Cmax) with dose was nearly dose proportional for the same doses. […] Dasotraline is extensively metabolized by oxidation and subsequent phase II metabolism. CYP2B6 oxidizes dasotraline to “dasotraline oxime”: […]

clinical [2] = details: human, in vivo; remark: listed apart in the source
Method: A randomized, 2-way crossover study to evaluate the effect of dasotraline on the pharmacokinetics (PK) of efavirenz, a sensitive cytochrome P450 2B6 (CYP2B6) substrate, and to assess the safety and tolerability of a single dose of dasotraline given concurrently with efavirenz was conducted.
Methodology: The study enrolled 29 healthy, non-smoking male and female subjects. All subjects were randomized to one of two treatment sequences: (A) Single doses of placebo and 400 mg efavirenz followed 28 days later by single doses of 24 mg dasotraline and 400 mg efavirenz; or (B) Single doses of 24 mg dasotraline and 400 mg efavirenz followed 28 days later by single doses of placebo and 400 mg efavirenz. Dasotraline and placebo were administered 6 hours prior to the planned dosing time of efavirenz. A screening period of approximately 4 weeks was followed by 2 treatment periods, each of which included approximately 78 hours in-clinic confinement followed by 3 outpatient follow-up visits. Dose administration occurred on Day 1 and Day 29. During the first treatment period, subjects were admitted to the clinic on Day −1, the day before first study drug administration (Day 1), and remained in clinic until discharge on Day 3. Subjects returned to the clinic for 3 subsequent visits (Days 5, 7, and 14) for PK sample collection. Following a washout period (consisting of 28 non-dosing days), subjects returned and were readmitted to the clinic for the second treatment period on Day 28, the day before the second study drug administration (Day 29), and remained in clinic until discharge on Day 31. Subjects returned to the clinic for 3 subsequent visits (Days 33, 35, and 42) for PK sample collection. Day 42 was the End of Study visit.
Evaluation: Blood for serial PK sampling was obtained from all subjects prior to efavirenz administration (pre-dose) and at specified time points after efavirenz administration on Days 1 and 29 for each treatment sequence. The recorded times for dasotraline PK plasma sample collections were relative to efavirenz dosing time. The primary parameters for efavirenz analysis were maximum observed plasma concentration (Cmax), time of maximum observed plasma concentration (tmax), area under the concentration-time curve (AUC) from time 0 to time t (AUC0-t), AUC from time 0 to the time of last measurable concentration (AUC0-last), AUC from time 0 extrapolated to infinity (AUC0-inf), terminal elimination rate constant (λZ), apparent terminal elimination half-life (t1/2), apparent total clearance (CL/F), and apparent volume of distribution during the terminal elimination phase (Vz/F). The primary parameters for dasotraline analysis were Cmax, AUC0-last, AUC0-t, and AUC0-inf.
Statistical Methods: All analyses involving PK data (e.g., plasma concentrations, derived PK parameters, assessment of drug-drug interaction) were performed on the PK population. For plasma concentrations of dasotraline and efavirenz, descriptive statistics (e.g., number, arithmetic mean, arithmetic standard deviation, minimum, median, maximum, 25th percentile, 75th percentile, geometric mean, and geometric coefficient of variation) were listed and summarized by time point by treatment for the PK population. Mean plasma concentration-time profiles were plotted by treatment on linear and semi-logarithmic scales. Individual subject linear and semi-logarithmic concentration-time plots, with respective treatments presented together, were included in the appendices.
To evaluate the effect of dasotraline on the PK of efavirenz, a mixed effect analysis of variance (ANOVA) was applied for the primary endpoint on natural log-transformed Cmax, AUC0-last, AUC0-t, and AUC0-inf of efavirenz. The model included treatment, sequence, and period as fixed effects and subject nested within sequence as a random effect. Only subjects who completed both treatment periods were included in the overall ANOVA to allow for an intra-subject comparison to be conducted. […]

In the case of N[C@@H]1CC[C@@H](c2ccc(Cl)c(Cl)c2)c2ccccc21 [Dasotraline, (1R,4S)-4-(3,4-dichlorophenyl)-1,2,3,4-tetrahydronaphthalen-1-amine], the Ki (CYP2B6; direct competitive inhibition, read-out: inhibition constant) is reported as 220 nM, the apparent inactivation constant (CYP2B6; time-dependent inhibition) is reported as 0.12 µM and the “maximal inactivation rate constant” value (CYP2B6; time-dependent inhibition) is reported as 0.15 min⁻¹. It also gave a Tmax (clinical [1]) of 10 to 12 h and a half-life (clinical [1]) of 1.96 to 3.21 days.

A Vd/F (clinical [2]; both sexes) of 525 L, a Cmax (clinical [2]; both sexes, 400 mg) of 1560 ng/mL and a Vd/F (clinical [2]; both sexes, 400 mg) of 759 L were found for O=C1Nc2ccc(Cl)cc2[C@@](C#CC2CC2)(C(F)(F)F)O1 [Efavirenz] in this work. It also gave an AUC(0-t) (clinical [2]; both sexes, 400 mg, AUC0-24) of 18200 ng·h/mL, an AUC(0-inf) (clinical [2]; both sexes, 400 mg, AUC0-inf) of 92000 ng·h/mL and an AUC(0-t) (clinical [2]; both sexes, 400 mg, AUC0-last) of 80400 ng·h/mL. The half-life (clinical [2]; both sexes, 400 mg, t1/2) was 5.96 days, the Tmax (clinical [2]; both sexes, 400 mg, tmax, median) was 3.05 h and the AUC(0-t) (clinical [2]; both sexes, Mean AUC from time 0 to 24 hours post-dose (AUC0-24)) was 19000 ng·h/mL. For the same molecule, the half-life (clinical [2]; both sexes, Mean terminal half-life) was 5.96 days, the Tmax (clinical [2]; both sexes, Median tmax) was 4 h and the AUC(0-inf) (clinical [2]; both sexes, mean AUC0-inf) was 87900 ng·h/mL. The AUC(0-t) (clinical [2]; both sexes, mean AUC0-last) was 112000 ng·h/mL, the half-life (clinical [2]; both sexes, t1/2) was 6.71 days and the Tmax (clinical [2]; both sexes, tmax, median) was 4 h. The “Mean AUC from time 0 to 24 hours post-dose (AUC0-24)” value (clinical [2]; both) was 17,700 h*ng/mL, the Mean terminal half-life (clinical [2]; both) was 161 h and the Median tmax (clinical [2]; both) was “approximately 3 hours”. For the same molecule, the “geometric LS mean ratio for AUC0-24” value (clinical [2]; both) was 107.5%, the “geometric LS mean ratio for AUC0-inf” value (clinical [2]; both) was 153.5% and the “geometric LS mean ratio for AUC0-last” value (clinical [2]; both) was 143.1%. For the same molecule, the “geometric LS mean ratio for Cmax” value (clinical [2]; both) was 98.5%, the “mean AUC0-inf” value (clinical [2]; both) was 135,000 h*ng/mL and the “mean AUC0-last” value (clinical [2]; both) was 78,200 h*ng/mL.
